In PubChem BioAssay (NCI):
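How tested: cells in 96-well plates exposed to compound for 48 hours at five concentrations. TGI: concentration producing complete growth inhibition.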

Key:
Test in all cases: DTP human tumour cell line panel, 48 h
UO-31 renal = tested on: UO-31 renal
SN12C renal = tested on: SN12C renal
MDA-N = tested on: MDA-N
HCT-116 colon = tested on: HCT-116 colon
CCRF-CEM leukemia = tested on: CCRF-CEM leukemia
OVCAR-5 ovarian = tested on: OVCAR-5 ovarian
DU-145 prostate = tested on: DU-145 prostate
SNB-19 CNS = tested on: SNB-19 CNS
K-562 leukemia = tested on: K-562 leukemia
HS 578T breast = tested on: HS 578T breast
A498 renal = tested on: A498 renal
SW-620 colon = tested on: SW-620 colon
SF-295 CNS = tested on: SF-295 CNS
MDA-MB-231 breast = tested on: MDA-MB-231 breast
COLO 205 colon = tested on: COLO 205 colon
NCI-H522 lung = tested on: NCI-H522 lung
HT29 colon = tested on: HT29 colon
SK-MEL-5 melanoma = tested on: SK-MEL-5 melanoma
MOLT-4 leukemia = tested on: MOLT-4 leukemia
OVCAR-4 ovarian = tested on: OVCAR-4 ovarian
HL-60(TB) leukemia = tested on: HL-60(TB) leukemia
TK-10 renal = tested on: TK-10 renal
SK-OV-3 ovarian = tested on: SK-OV-3 ovarian
SR leukemia = tested on: SR leukemia
SK-MEL-2 melanoma = tested on: SK-MEL-2 melanoma
LOX IMVI melanoma = tested on: LOX IMVI melanoma
SNB-75 CNS = tested on: SNB-75 CNS
MDA-MB-435 = tested on: MDA-MB-435
OVCAR-3 ovarian = tested on: OVCAR-3 ovarian
MCF7 breast = tested on: MCF7 breast
UACC-257 melanoma = tested on: UACC-257 melanoma
CAKI-1 renal = tested on: CAKI-1 renal
SK-MEL-28 melanoma = tested on: SK-MEL-28 melanoma
KM12 colon = tested on: KM12 colon
SF-268 CNS = tested on: SF-268 CNS
RPMI-8226 leukemia = tested on: RPMI-8226 leukemia
786-0 renal = tested on: 786-0 renal
EKVX NSCLC = tested on: EKVX NSCLC
NCI-H23 lung = tested on: NCI-H23 lung
UACC-62 melanoma = tested on: UACC-62 melanoma
T-47D breast = tested on: T-47D breast
NCI/ADR-RES ovarian = tested on: NCI/ADR-RES ovarian
ACHN renal = tested on: ACHN renal
SF-539 CNS = tested on: SF-539 CNS
HOP-92 NSCLC = tested on: HOP-92 NSCLC
IGROV1 ovarian = tested on: IGROV1 ovarian
NCI-H226 lung = tested on: NCI-H226 lung
HOP-62 NSCLC = tested on: HOP-62 NSCLC
OVCAR-8 ovarian = tested on: OVCAR-8 ovarian
A549 NSCLC = tested on: A549 NSCLC
HCC-2998 colon = tested on: HCC-2998 colon
HCT-15 colon = tested on: HCT-15 colon
NCI-H460 lung = tested on: NCI-H460 lung
RXF 393 renal = tested on: RXF 393 renal
PC-3 prostate = tested on: PC-3 prostate
M14 melanoma = tested on: M14 melanoma
U251 CNS = tested on: U251 CNS
MALME-3M melanoma = tested on: MALME-3M melanoma

Measured: TGI

O=C1c2ccccc2C2=Cc3ccccc3C(O)N12 (stereo not drawn)
91.9 µM: MOLT-4 leukemia
64.1 µM: HL-60(TB) leukemia
65.3 µM: UACC-62 melanoma
43.2 µM: CAKI-1 renal
35 µM: UO-31 renal
83.8 µM: RXF 393 renal
83.5 µM: SR leukemia
40.8 µM: NCI-H522 lung
> 100 µM: all other assays above
